Reference: patent publication EP4506003A1, “HALOGEN DERIVATIVES OF (4´,5´- METHYLENEDIOXYPHENYL)-6,7-DIMETHOXY-1,2,3,4-TETRAHYDROISOQUINOLINE FOR USE IN THE TREATMENT OF LEUKEMIA” (S.Yu Yunusov Institute of Chemistry of Plant Substances of …, priority 2023, dated 2025)
Marks after values point to notes of the source that are not given here.

What was measured:
[1] = system: CCRF-CEM (CCL-119) (T-lymphoblastic leukemia); assay: MTT cytotoxicity on CCRF-CEM cells; assay type: cell-based; conditions: 24 hours
Description: (§1) The cytotoxic properties of the compounds were determined in vitro using the MTT method in 96-well plates (Costar, USA). […] Rat liver hepatocytes were obtained according to the method, human blood mononuclear cells - according to [23]. Fibroblast cells were obtained according to the method of [24] with some modifications. Cell cultures were subcultured into 96-well plates according to the method of [21] by adding 100 μl of nutrient medium. The CCRF-CEM suspension culture was poured into a tube, centrifuged at 800 rpm for 10 minutes, and the supernatant was discarded. […] Data obtained in 3 independent experiments were expressed as the mean value for each concentration ± standard error of the mean, relative to the control values (cells without test compounds). The cytotoxic effect of each of the studied compounds was compared with the effect of the cytostatic Cisplatin-Naprod (India), containing cisplatin as an active component. Table 1: IC50 μM value for test compounds

[2] = system: fibroblasts; assay: MTT cytotoxicity on fibroblasts; assay type: cell-based; conditions: 24 hours
Description: as §1

[3] = system: Rat liver hepatocytes; assay: MTT cytotoxicity on hepatocytes; assay type: cell-based; conditions: 24 hours
Description: as §1

[4] = system: blood of patients with leukemia (combined group); assay: Hemogram of blood of patients with leukemia (combined group) after exposure; assay type: cell-based; conditions: 10 µg/ml, 3 hours, 37.0°C
Description: (§2) The effect of compounds F1 and F2 was studied on biological material (blood) of patients with hematological malignancies (leukemia), as well as for individual nosologies, in particular, patients with leukemia (combined group) (n=224), T-ALL (n=84), B-ALL (n=100), ALL (n=100), AML (n= 98), AML (n=94) and AML (n= 98) were studied. A total of 798 blood samples from patients with leukemia were examined.
(§3) The drugs Cytosar (Alexan) (Ebewe Pharma, Austria) and doxorubicin (Naprod, Mumbai, India) recommended by WHO for the treatment of the above oncohematological diseases were used as comparison drugs.
(§4) 5 ml of venous blood from sick and conditionally healthy individuals were collected into Vacutainer tubes with the addition of EDTA (Himedia, India).
(§5) The resulting blood was divided into aliquots of 1 ml and 10 µl (10 µg/ml) of the studied drugs (cytosar, doxorubicin, F1 and F2) were added to each tube.

[5] = system: blood of patients with T-ALL; assay: Hemogram of blood of patients with T-ALL after exposure; assay type: cell-based; conditions: 10 µg/ml, 3 hours, 37.0°C
Description: as §2, §3, §4, §5

[6] = system: blood of patients with B-ALL; assay: Hemogram of blood of patients with B-ALL after exposure; assay type: cell-based; conditions: 10 µg/ml, 3 hours, 37.0°C
Description: A total of 798 blood samples from patients with leukemia were examined.
as §3, §4, §5

[7] = system: blood of patients with ALL; assay: Hemogram of blood of patients with ALL after exposure; assay type: cell-based; conditions: 10 µg/ml, 3 hours, 37.0°C
Description: as §2, §4, §5

[8] = system: blood of patients with AML; assay: Hemogram of blood of patients with AML after exposure (Example 12, Table 9); assay type: cell-based; conditions: AML (Table 9); 10 µg/ml; 3 hours, 37.0°C
Description: as §3, §4, §5

[9] = system: blood of patients with AML; assay: Hemogram of blood of patients with AML after exposure (Example 13, Table 10; also OMML); assay type: cell-based; conditions: AML (Table 10); 10 µg/ml; 3 hours, 37.0°C
Description: as §3, §4, §5

[10] = system: blood of patients with AML; assay: Hemogram of blood of patients with AML after exposure (Example 14, Table 11); assay type: cell-based; conditions: AML (Table 11); 10 µg/ml; 3 hours, 37.0°C
Description: as §2, §3, §4, §5

[11] = system: blood of conditionally healthy individuals; assay: Hemogram of blood of conditionally healthy individuals after exposure to the drugs; conditions: 10 µg/ml, 3 hours, 37.0°C
Description: as §4, §5

[12] = Acute toxicity study (LD50); conditions: both, outbred white, mouse, in vivo, ip
Description: We studied the acute toxicity of compound F1 in vivo. The experiments were carried out on outbred white mice of both sexes weighing 18-20 g (24 pcs.). The animals were divided into groups of 12 mice each. The compound was dissolved in DMSO and then adjusted to the desired concentration with 0.9% NaCl solution and administered intraperitoneally and subcutaneously in a dose range from 5.0 to 200.0 mg/kg. […] The maximum relative error of the applied dose was no more than 5%.
We studied the acute toxicity of compound F2 in vivo. The experiments were carried out on outbred white mice of both sexes weighing 18-20 g (24 pcs.). The animals were divided into groups of 12 mice each. The compound was dissolved in DMSO and then brought to the desired concentration with 0.9% NaCl solution and administered intraperitoneally and subcutaneously to animals in a dose range from 5.0 to 200.0 mg/kg. […] The maximum relative error of the administered dose was no more than 5%.

SMILES: N.N.[Cl][Pt][Cl] [Cisplatin, cisplatin, reference compound]
- IC50 [1]: 12.4 µM
- IC50 [2]: 29.4 µM
- IC50 [3]: 28.7 µM

SMILES: Nc1ccn([C@@H]2O[C@H](CO)[C@@H](O)[C@@H]2O)c(=O)n1 [Cytosar, cytarabine, reference compound]
- Band (s/n) neutrophils [4]: 1,1±0,4 %
- Blasts [4]: 65,9±2,8 %
- Destroyed cells [4]: 9,0±1,6 %
- Eosinophils [4]: 0,4±0,3%
- Lymphocytes [4]: 13,7±1,6%
- Monocytes [4]: 3,5±0,6 %
- Myelocytes [4]: 1,1±0,3 %
- Promyelocytes [4]: 0,2±0,1%
- Segmented (s/i) neutrophils [4]: 6,7±1,1%
- Band (s/n) neutrophils [5]: 1,0±0,1%
- Blasts [5]: 73,5±2,0 %
- Destroyed cells [5]: 8,8±1,0 %
- Eosinophils [5]: 0,0±0,0%
- Lymphocytes [5]: 11,5±1,0 %
- Monocytes [5]: 2,3±0,4%
- Myelocytes [5]: 0,0±0,0%
- Promyelocytes [5]: 0,0±0,000%
- Segmented (s/i) neutrophils [5]: 3,0±0,4 %
- Band (s/n) neutrophils [6]: 0,6±0,3%
- Blasts [6]: 63,5±3,4 %
- Destroyed cells [6]: 8,9±2,2 %
- Eosinophils [6]: 0,1±0,1%
- Lymphocytes [6]: 17,2±2,0%
- Monocytes [6]: 4,6±1,2%
- Myelocytes [6]: 0,7±0,4%
- Promyelocytes [6]: 0,0±0,0%
- Segmented (s/i) neutrophils [6]: 6,1±0,9%
- Band (s/n) neutrophils [7]: 0,4±0,2%
- Blasts [7]: 78,7±1,4 %
- Destroyed cells [7]: 4,8±1,4 %
- Eosinophils [7]: 0,0±0,0%
- Lymphocytes [7]: 11,4±0,8%
- Monocytes [7]: 2,2±0,4%
- Myelocytes [7]: 0,2±0,1%
- Promyelocytes [7]: 0,0±0,0%
- Segmented (s/i) neutrophils [7]: 2,4±0,6%
- Band (s/n) neutrophils [8]: 1,2±0,5%
- Blasts [8]: 65,4±3,9 %
- Destroyed cells [8]: 6,3±1,7 %
- Eosinophils [8]: 1,0±0,9%
- Lymphocytes [8]: 12,5±1,7%
- Monocytes [8]: 3,4±0,8%
- Myelocytes [8]: 1,4±0,6%
- Promyelocytes [8]: 0,9±0,6%
- Segmented (s/i) neutrophils [8]: 5,6±1,2%
- Band (s/n) neutrophils [9]: 3,6±0,5%
- Blasts [9]: 50,2±2,8%
- Destroyed cells [9]: 7,8±0,6 %
- Eosinophils [9]: 0,6±0,3%
- Lymphocytes [9]: 6,6±0,7%
- Monocytes [9]: 1,2±0,2 %
- Myelocytes [9]: 16,0±1,4 %
- Promyelocytes [9]: 0,0±0,0%
- Segmented (s/i) neutrophils [9]: 14,1±1,2 %
- Band (s/n) neutrophils [10]: 3,5±1,0 %
- Blasts [10]: 59,5±3,7 %
- Destroyed cells [10]: 12,4±1,7 %
- Eosinophils [10]: 4,0±0,2%
- Lymphocytes [10]: 8,4 ±0,9%
- Monocytes [10]: 4,9±1,2 %
- Myelocytes [10]: 1,8±0,4%
- Promyelocytes [10]: 0,0±0,0%
- Segmented (s/i) neutrophils [10]: 9,2±2,3%
- Band (s/n) neutrophils [11]: 1,8±0,2 %
- Blasts [11]: 0,0±0,0%
- Destroyed cells [11]: 0,0±0,0%
- Eosinophils [11]: 2,1±0,4%
- Lymphocytes [11]: 28,0±1,2%
- Monocytes [11]: 6,6±0,4 %
- Myelocytes [11]: 0,0±0,0%
- Promyelocytes [11]: 0,0±0,0%
- Segmented (s/i) neutrophils [11]: 61,5±1,2%

SMILES: COc1cccc2c1C(=O)c1c(O)c3c(c(O)c1C2=O)C[C@@](O)(C(=O)CO)C[C@@H]3O[C@H]1C[C@H](N)[C@H](O)[C@H](C)O1 [Doxorubicin, doxorubicin, reference compound]
- LD50 at 1 week [12]: 10.8 mg/kg
- Band (s/n) neutrophils [4]: 1,8±0,5%
- Blasts [4]: 65,6±2,6 %
- Destroyed cells [4]: 11,4±2,2 %
- Eosinophils [4]: 3,8±2,4%
- Lymphocytes [4]: 15,0±1,8%
- Monocytes [4]: 5,3±1,2%
- Myelocytes [4]: 3,3±1,2%
- Promyelocytes [4]: 0,0±0,000%
- Segmented (s/i) neutrophils [4]: 5,8±0,7%
- Band (s/n) neutrophils [5]: 1,2±0,1 %
- Blasts [5]: 67,2±0,9 %
- Destroyed cells [5]: 13,4±0,5 %
- Eosinophils [5]: 0,0±0,0%
- Lymphocytes [5]: 9,8±0,1 %
- Monocytes [5]: 1.7±0,2%
- Myelocytes [5]: 0,0±0,0%
- Promyelocytes [5]: 0,0±0,0%
- Segmented (s/i) neutrophils [5]: 6,7±0,4%
- Band (s/n) neutrophils [6]: 0,7±0,2%
- Blasts [6]: 64,3±3,7%
- Destroyed cells [6]: 13,0±2,8 %
- Eosinophils [6]: 0,1±0,1%
- Lymphocytes [6]: 15,0±2,9%
- Monocytes [6]: 1.6±0,5%
- Myelocytes [6]: 0,6±0,3%
- Promyelocytes [6]: 0,0±0,0%
- Segmented (s/i) neutrophils [6]: 4,9±0,9%
- Band (s/n) neutrophils [7]: 0,3±0,1%
- Blasts [7]: 76,4±1,7 %
- Destroyed cells [7]: 9,0±1,1*^ %
- Eosinophils [7]: 0,2±0,1%
- Lymphocytes [7]: 9,9±1,3%
- Monocytes [7]: 1.9±0,6%
- Myelocytes [7]: 0,2±0,1%
- Promyelocytes [7]: 0,0±0,0%
- Segmented (s/i) neutrophils [7]: 2,2±0,3%
- Band (s/n) neutrophils [8]: 0,5±0,4%
- Blasts [8]: 68,4±3,6 %
- Destroyed cells [8]: 5,6±1,4 %
- Eosinophils [8]: 0,8±0,7%
- Lymphocytes [8]: 13,2±2,4%
- Monocytes [8]: 5.2±1,5%
- Myelocytes [8]: 0,9±0,8%
- Promyelocytes [8]: 0,0±0,0%
- Segmented (s/i) neutrophils [8]: 5,5±1,2%
- Band (s/n) neutrophils [9]: 3,4±0,5%
- Blasts [9]: 58,4±1,9%
- Destroyed cells [9]: 15,1±1,1 %
- Eosinophils [9]: 0,7±0,3%
- Lymphocytes [9]: 6,1±0,7%
- Monocytes [9]: 1.6±0,3 %
- Myelocytes [9]: 4,0±0,4 %
- Promyelocytes [9]: 0,0±0,0%
- Segmented (s/i) neutrophils [9]: 10,8±1,0%
- Band (s/n) neutrophils [10]: 0,8±0,2%
- Blasts [10]: 45,4±1,9 %
- Destroyed cells [10]: 24,0±4,0 %
- Eosinophils [10]: 0,0±0,0%
- Lymphocytes [10]: 9,7±1,5%
- Monocytes [10]: 11.2±2,3 %
- Myelocytes [10]: 0,0±0,0%
- Promyelocytes [10]: 0,0±0,0%
- Segmented (s/i) neutrophils [10]: 9,1±1,5%
- Band (s/n) neutrophils [11]: 1,5±0,2%
- Blasts [11]: 0,0±0,0%
- Destroyed cells [11]: 0,0±0,0%
- Eosinophils [11]: 1,7±0,2%
- Lymphocytes [11]: 28,1±0,9%
- Monocytes [11]: 6,1±0,4%
- Myelocytes [11]: 0,0±0,0%
- Promyelocytes [11]: 0,0±0,0%
- Segmented (s/i) neutrophils [11]: 62,6±1,0%
